Test results published in ChEMBL document CHEMBL1201862, “PubChem BioAssay data set” (2004).
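Cultured in 96-well plates, cells were exposed to test compound for 48 hours across five concentrations. Abbreviation: GI50, concentration required for 50% inhibition of growth.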 Calls of active or inactive are those of the source. No stated cut-off is given here; in the data, active = GI50 up to about 1.1 µM and inactive = higher.

Legend:
Assay in all cases: NCI anticancer screen, dose series, 48 h
[1] = system: IGROV-1
[2] = system: OVCAR-5
[3] = system: A498
[4] = system: DMS-114
[5] = system: CCRF-CEM
[6] = system: HT-29
[7] = system: RXF 393
[8] = system: KM12
[9] = system: HCT-116
[10] = system: SF-268
[11] = system: SK-OV-3
[12] = system: SNB-19
[13] = system: RPMI-8226
[14] = system: HCC 2998
[15] = system: OVCAR-4
[16] = system: SF-295
[17] = system: NCI-H226
[18] = system: M14
[19] = system: SW-620
[20] = system: MDA-MB-435

Measured: GI50

OCCCCCNc1ccnc2cc(Cl)ccc12
inactive: [1] > 100 µM | [2] 83.2 µM | [3] > 100 µM | [4] 36.7 µM | [5] > 100 µM | [6] 29.2 µM | [7] > 100 µM | [8] > 100 µM | [9] 33.7 µM | [10] > 100 µM | [11] > 100 µM | [12] > 100 µM | [13] 31.3 µM | [14] > 100 µM | [15] > 100 µM | [16] 47.3 µM | [17] 74.5 µM | [18] > 100 µM | [19] > 100 µM

CCN1C(=O)/C(=C\c2coc3ccccc3c2=O)SC1=S
inactive: [1] > 100 µM | [2] > 100 µM | [3] > 100 µM | [4] > 100 µM | [5] 65.6 µM | [6] > 100 µM | [7] 36.5 µM | [8] > 100 µM | [9] 64 µM | [10] 66.8 µM | [11] > 100 µM | [12] > 100 µM | [13] > 100 µM | [14] > 100 µM | [15] > 100 µM | [16] 42 µM | [17] > 100 µM | [18] > 100 µM | [19] 49.4 µM

CN(C)CC1CCCC/C1=N/OC(=O)c1ccc(Cl)c(Cl)c1 (stereo not drawn)
inactive: [1] > 100 µM | [2] > 100 µM | [3] > 100 µM | [4] > 100 µM | [5] > 100 µM | [6] > 100 µM | [7] > 100 µM | [8] > 100 µM | [9] > 100 µM | [10] > 100 µM | [11] > 100 µM | [13] > 100 µM | [14] > 100 µM | [15] > 100 µM | [16] > 100 µM | [17] > 100 µM | [18] > 100 µM | [19] > 100 µM

CNC(=O)NC(CCCCNC(=O)OCc1ccccc1)C(=O)OCc1ccccc1 (stereo not drawn)
inactive: [1] > 100 µM | [2] > 61.4 µM | [3] 20.3 µM | [20] 19.6 µM | [4] 28.1 µM | [5] 14.7 µM | [6] > 100 µM | [7] 27.9 µM | [8] > 100 µM | [9] 81.8 µM | [10] 57.3 µM | [11] > 100 µM | [12] > 100 µM | [13] 24.9 µM | [14] 30.5 µM | [15] 76.4 µM | [16] 60.8 µM | [17] 42.9 µM | [18] 19.5 µM | [19] > 97.5 µM

CC(=O)ON(C(C)=O)C1C(COC(c2ccccc2)(c2ccccc2)c2ccccc2)OC2OC3(CCCC3)OC21 (stereo not drawn)
inactive: [1] > 100 µM | [2] > 100 µM | [3] 25.9 µM | [4] 5.5 µM | [5] 4.13 µM | [6] > 26.6 µM | [7] 4.44 µM | [8] 5.09 µM | [9] 5.45 µM | [10] 10.5 µM | [11] 5.53 µM | [12] 5.38 µM | [13] 2.42 µM | [14] > 50.4 µM | [15] 7.8 µM | [16] 6 µM | [17] 9.16 µM | [18] 7.18 µM | [19] 8.63 µM

O=Cc1cc2sc(C=O)cc2s1
inactive: [1] > 100 µM | [2] > 100 µM | [3] 17.7 µM | [4] > 100 µM | [5] > 100 µM | [6] > 100 µM | [7] > 100 µM | [8] > 100 µM | [9] > 100 µM | [10] > 100 µM | [11] > 100 µM | [12] > 100 µM | [13] > 100 µM | [14] > 100 µM | [15] > 100 µM | [16] > 100 µM | [17] 26.1 µM | [18] > 100 µM | [19] > 100 µM

COc1ccc(C2Oc3cc(OC)c(O)c(C)c3[C@H]2C)cc1 (stereo partly drawn)
inactive: [1] > 100 µM | [2] > 100 µM | [3] 79.4 µM | [4] 58.7 µM | [5] 36.2 µM | [6] > 100 µM | [7] 23 µM | [8] > 100 µM | [9] 35.6 µM | [10] 41.4 µM | [11] > 100 µM | [12] 26.9 µM | [13] > 10 µM | [14] > 100 µM | [15] 80.4 µM | [16] > 100 µM | [17] 26.9 µM | [18] > 100 µM | [19] 66.4 µM
